Square brackets hold non-standard residues; d marks the D form. Ends that are not written are not given here. Peptide text beside a SMILES is read from it. * marks the point of attachment. Dolaproine = CO[C@@H]([C@@H]1CCCN1)[C@@H](C)C(=O)O; Dil = CC[C@H](C)[C@H](NC)[C@@H](CC(=O)O)OC; X1 = C[C@@H](N*)[C@@H](O)c1ccccc1; NMeV = CN[C@H](C(=O)O)C(C)C
Legend:
HeLa cells = assay: Uptake of peptide-AF647 conjugate in HeLa cells (fluorescence microscopy, flow cytometry, endocytosis inhibitors); assay type: cell-based; settings: for effect of endocytic inhibitors on uptake of SEQ ID NO: 15-A: SEQ ID NO: 15-A at 4 μM, flow cytometry, pre-treatment of HeLa cells
Protocol: SEQ ID NO: 15-A and HIV-Tat-FITC, an HIV-Tat protein conjugated to a FITC fluorophore, were each dosed in HeLa cells at a concentration of 20 μM. The fluorescence image was taken on a Nikon Live microscope at 40× magnification, four hours after cells were dosed with SEQ ID NO: 15-A and HIV-Tat-FITC. The green fluorescence (FITC) and the red fluorescence (AF647) were located in different punctate regions, showing that the two molecules are localized in different vesicles.
Fluorescence was measured via flow cytometry and quantified to determine uptake of the peptide conjugate in cells.
SEQ ID NO: 15-A was dosed at a concentration of […] HIV-Tat-FITC was dosed at a concentration of 1 mM, and Dextran-Texas Red was dosed at a concentration of 25 mg/ml.

[1] = test system: A375 cells and RH28 cells; assay: Modulation of SEQ ID NO: 15-A accumulation in cells by small molecule drugs (flow cytometry median fluorescence); assay type: cell-based; settings: drug at increasing concentrations with 1 μM SEQ ID NO: 15-A
Description: This example illustrates the small molecule drug enhancing properties of peptides of this disclosure. Peptides of this disclosure were useful in enhancing or dampening the potency of several small molecule drugs. […] The Approved Oncology Drugs Plated Set VII was obtained from NCI and included histone deacetylase (HDAC) inhibitors such as vorinostat, belinostat, panobinostat, and […]. The tested set also included tyrosine kinase inhibitors, protease inhibitors, and anthracyclines. A375 cells and RH28 cells were plated at 10,000 cells per well in 96 well plates and allowed to adhere overnight. […] Cells were washed three times with PBS-FBS and once in PBS. Cells were trypsinized, resuspended in PBS-FBS-DAPI, and assessed for average fluorescence as compared to untreated cells by flow cytometry analysis. […] Cells were washed three times with PBS-FBS and once in PBS. Cells were trypsinized, resuspended in PBS-FBS-DAPI, and assessed for average fluorescence as compared to untreated cells by flow cytometry analysis.

A204 cell line = assay: Relative viability of A204 cells; assay type: cell-based; settings: 48 hours after administration, various doses
Protocol: (§1) This example describes the viability different cell lines to MMAE or MMAE-peptide conjugates and toxicity induced by delivery of MMAE to cells by a peptide conjugate of the disclosure. A peptide of SEQ ID NO: 26 was expressed recombinantly or chemically synthesized and then conjugated to a therapeutic agent, MMAE, by a Val-Cit-PAB linker, producing SEQ ID NO: 26-B peptide conjugate (SEQ ID NO: 26-B). HeLa cells were treated in vitro with MMAE, SEQ ID NO: 26 peptide, or SEQ ID NO: 26-B, and viability was quantified. Ewing's Sarcoma cell lines including the RH28 cell line, A673 cell line, and A204 cell line, were treated in vitro with MMAE or SEQ ID NO: 26-B for 48-72 hours and viability of cells was quantified.

A673 cell line = assay: Relative viability of A673 cells; assay type: cell-based; settings: various doses
Protocol: as §1

RH28 cell line = assay: Relative viability of RH28 cells; assay type: cell-based; settings: various doses
Protocol: as §1

RH28 flank tumors = assay: Chirality in tumor homing, RH28 flank tumors (ex vivo IVIS); set-up: species or system mice; settings: AF647 conjugates, 10 nmol per mouse intravenously, one hour
Protocol: This example illustrates the role of chirality in tumor homing peptides of this disclosure. Each L-enantiomer in a peptide of SEQ ID NO: 15 was replaced with the corresponding D-enantiomer (SEQ ID NO: 36). Both peptides were conjugated to AlexaFluor 647 and tumor homing, and homing to the liver and kidneys was assessed by fluorescence quantification. […] Peptide-AF647 conjugates were administered intravenously to mice bearing RH28 flank tumors at 10 nmol per mouse. Mice were euthanized one hour post-administration, organs were necropsied, and tissues were analyzed ex vivo using an IVIS imager. P-values were determined using an unpaired Student's t-test.

[2] = Folding of manufactured peptide variants (HPLC traces); assay type: physicochemical
Description: Generally, the NMR solution structures of related structural homologs can be used to inform mutational strategies that may improve the folding, stability, manufacturability, while maintaining a particular biological function. They can be used to predict the 3D pharmacophore of a group of structurally homologous scaffolds, as wells as to predict possible graft regions of related proteins to create chimeras with improved properties. The general strategy for producing homologs can include identification of a charged surface patch of a protein, mutation of critical amino acid positions and loops, and testing of sequences. This strategy can be used to design peptides with improved properties or to correct deleterious mutations that complicate folding and manufacturability. […] Accordingly, three amino acid positions (R11, R13, and R31) were chosen to be individually mutated to improve stability, yielding peptides of SEQ ID NO: 18, SEQ ID NO: 20, and SEQ ID NO: 25.
This example illustrates the modification of a function of a peptide. A peptide of SEQ ID NO: 15 was modified at positively charge patches to give a peptide of SEQ ID NO: 1 and a peptide of SEQ ID NO: 2. The modified peptides were expressed recombinantly. Mutations at positively charged patches of a peptide of SEQ ID NO: 15 were not well tolerated as indicated by the lack of folding purity indicated by the HPLC traces in FIG. 15.

[3] = test system: Caspase-3 activation in Ramos lymphoma tumor, liver, kidney; assay: Caspase-3 staining of tissues after MMAE or peptide-MMAE conjugate; assay type: in vivo, female Harlan athymic mice; settings: 7.5 nmol, 48 hours after single systemic administration
Protocol: This example illustrates whole-body autoradiography and Caspase-3 staining after administration of peptide conjugated to MMAE. MMAE was conjugated to a peptide of SEQ ID NO: 26 with a Val-Cit-PABC linker to produce a SEQ ID NO: 26-B peptide conjugate (SEQ ID NO: 26-B). 7.5 nmol MMAE or 7.5 nmol SEQ ID NO: 26-B were administered to RH-28 tumor-bearing or Ramos lymphoma tumor-bearing female Harlan athymic mice and allowed to freely circulate for 24 or 48 hours.

RH-28 tumor = assay: Whole-body autoradiography after peptide-MMAE conjugate administration, RH-28 tumor; assay type: in vivo, female Harlan athymic mice; settings: 14 nmol, 24 hours after administration
Description: This example illustrates whole-body autoradiography and Caspase-3 staining after administration of peptide conjugated to MMAE. MMAE was conjugated to a peptide of SEQ ID NO: 26 with a Val-Cit-PABC linker to produce a SEQ ID NO: 26-B peptide conjugate (SEQ ID NO: 26-B). […]
At the end of the dosing period, mice were frozen in a hexane/dry ice bath and then frozen in a block of carboxymethylcellulose. […] Thin, frozen sections of mice were obtained with a microtome, allowed to desiccate in a freezer, and exposed to phosphoimager plates for about ten days.
These plates were developed, and the signal (densitometry) from each organ was normalized to the signal found in the heart blood of each mouse. A signal in tissue darker than the signal expected from blood in that tissue indicates peptide accumulation in a region, tissue, structure or cell.

[4] = 72 hours of continuous treatment

**Q.** With `CCCCC[C@@H](O)[C@H]1C(=O)O[C@H](C)[C@@H](O)/C=C/C=C/C=C/C=C/C=C(\C)[C@@H](O)C[C@H](O)C[C@H](O)C[C@H](O)C[C@H](O)C[C@H](O)C[C@@H]1O` [filipin] as the compound, how does the “effect of endocytic inhibitors on uptake of SEQ ID NO: 15-A” value (HeLa cells) read?
**A.** inhibit the uptake of SEQ ID NO: 15-A

**Q.** For bleomycin, which “modulation of accumulation of SEQ ID NO: 15-A in tumor cells (median fluorescence vs untreated)” value [1] is on record?
**A.** modulate the accumulation of peptides of this disclosure to tumor cells

**Q.** Which “relative viability / growth of A204 cells” value (A204 cell line) does the source give for “SEQ ID NO: 15-B (GSSCEPGRTFRDRCNTCRCGADGRSAACTLRACPNQ; cysteine pairing not given here; also: conjugate B)” here?
**A.** inhibited growth of all three cell lines

**Q.** What about the “relative viability / growth of A673 cells” value (A673 cell line; 48 hours after administration) of the same compound?
**A.** inhibited growth of all three cell lines

**Q.** What about the “relative viability / growth of RH28 cells” value (RH28 cell line; 48 hours after administration) of the same compound?
**A.** inhibited growth of all three cell lines

**Q.** With “GSSCEPGRTFRDRCNTCRCGADGRSAACTLRACPNQ (not fully specified (some residues); ends and bridges not checked) [SEQ ID NO: 15]” as the compound, how does the “homing to RH28 flank tumor (average radiant efficiency fluorescence), L- vs D-amino acid peptide” value (RH28 flank tumors) read?
**A.** higher homing to flank tumor than a peptide of SEQ ID NO: 36

**Q.** Which “internalization by HeLa cells (fluorescence image)” value (HeLa cells; 20 μM, four hours after dosing, 40×) does the source give for “SEQ ID NO: 15-A (GSSCEPGRTFRDRCNTCRCGADGRSAACTLRACPNQ; cysteine pairing not given here; also: conjugate A)” here?
**A.** internalized by HeLa cells

**Q.** For “GSSCEPGRTFEDRCNTCRCGADGRSAACTLRACPNQ [SEQ ID NO: 18]”, which “folding of the manufactured peptide” value [2] is on record?
**A.** Improved folding

**Q.** Which “folding of the manufactured peptide” value [2] does the source give for “GSSCEPGRTFADACNTCRCGADGRSAACTLAACPNQ [SEQ ID NO: 2]” here?
**A.** unable to fold

**Q.** With `Cn1c(=O)n(-c2ccc(C(C)(C)C#N)cc2)c2c3cc(-c4cnc5ccccc5c4)ccc3ncc21` [BEZ235] as the compound, how does the “modulation of accumulation of SEQ ID NO: 15-A in tumor cells (median fluorescence vs untreated)” value [1] read?
**A.** modulate the accumulation of peptides of this disclosure to tumor cells

**Q.** With `O=C(CCCCCCC(=O)Nc1ccccc1)NO` [vorinostat] as the compound, how does the “modulation of accumulation of SEQ ID NO: 15-A in tumor cells (median fluorescence vs untreated)” value [1] read?
**A.** modulate the accumulation of peptides of this disclosure to tumor cells

**Q.** For “GSSCEPGRTFRDECNTCRCGADGRSAACTLRACPNQ [SEQ ID NO: 20]”, which “folding of the manufactured peptide” value [2] is on record?
**A.** Improved folding

**Q.** With `Nc1ccn([C@@H]2O[C@H](CO)[C@@H](O)[C@@H]2O)c(=O)n1` [cytarabine] as the compound, how does the “modulation of accumulation of SEQ ID NO: 15-A in tumor cells (median fluorescence vs untreated)” value [1] read?
**A.** modulate the accumulation of peptides of this disclosure to tumor cells

**Q.** Which “relative viability / growth of A673 cells” value (A673 cell line; [4]) does the source give for “SEQ ID NO: 26-B (GSSCEPGRTFRDRCNTCKCGADGRSAACTLRACPNQ; cysteine pairing not given here; also: conjugate B)” here?
**A.** inhibited growth of both cell lines

**Q.** What about the “relative viability / growth of RH28 cells” value (RH28 cell line; [4]) of the same compound?
**A.** inhibited growth of both cell lines

**Q.** For “GSSCEPGRTFEDECNTCRCGADGRSAACTLEACPNQ [SEQ ID NO: 1]”, which “folding of the manufactured peptide” value [2] is on record?
**A.** unable to fold

**Q.** Which “Caspase-3 staining in tumor, liver and kidney” value [3] does the source give for `CC[C@H](C)[C@@H]([C@@H](CC(=O)N1CCC[C@H]1[C@H](OC)[C@@H](C)C(=O)N[C@H](C)[C@@H](O)c1ccccc1)OC)N(C)C(=O)[C@@H](NC(=O)[C@@H](NC)C(C)C)C(C)C` [MMAE, monomethyl auristatin E] (H-[NMeV]V[Dil][Dolaproine]-X1) here?
**A.** induction of apoptosis

**Q.** Which “14C signal distribution in tissues (autoradiography)” value (RH-28 tumor) does the source give for “SEQ ID NO: 26-Br (GSSCEPGRTFRDRCNTCKCGADGRSAACTLRACPNQ; cysteine pairing not given here; also: conjugate Br)” here?
**A.** accumulation in the RH-28 tumor

**Q.** Which results are given for “methyl-beta-cyclodextrin [methyl-beta-cyclodextrin (MBCD)]”?
**A.** inhibition of uptake of SEQ ID NO: 15-A relative to dextran and HIV-Tat (HeLa cells; 2 mM MBCD pre-treatment of HeLa cells): inhibits uptake of SEQ ID NO: 15-A to a greater extent than dextran, a fluid-phase marker, or HIV-Tat; effect of endocytic inhibitors on uptake of SEQ ID NO: 15-A (HeLa cells): inhibit the uptake of SEQ ID NO: 15-A

**Q.** For “GSSCEPGRTFRDRCNTCRCGADGRSAACTLEACPNQ [SEQ ID NO: 25]”, which “folding of the manufactured peptide” value [2] is on record?
**A.** Improved folding
